One test addresses D(1A) dopamine receptor (Rattus norvegicus, UniProt P18901). Nature of the test: Binding affinity towards Dopamine receptor D1 in rat striatal tissue by [3H]-SCH- 23390 displacement. Type of test: tissue-based, Striatum.
A further test deals with D(2) dopamine receptor (Rattus norvegicus, UniProt P61169). Nature of the test: Binding affinity towards Dopamine receptor D2 in rat striatal tissue by [3H]spiperone displacement. The test is classed as tissue-based, Striatum.
Another test concerns Rattus norvegicus. Nature of the test: Minimal dose producing reduction in avoidance responding after sc administration for 1 hr in rat. The test is classed as functional.

pKi: −log10 of the molar value.

D(1A) dopamine receptor, sequence (P18901 whole entry): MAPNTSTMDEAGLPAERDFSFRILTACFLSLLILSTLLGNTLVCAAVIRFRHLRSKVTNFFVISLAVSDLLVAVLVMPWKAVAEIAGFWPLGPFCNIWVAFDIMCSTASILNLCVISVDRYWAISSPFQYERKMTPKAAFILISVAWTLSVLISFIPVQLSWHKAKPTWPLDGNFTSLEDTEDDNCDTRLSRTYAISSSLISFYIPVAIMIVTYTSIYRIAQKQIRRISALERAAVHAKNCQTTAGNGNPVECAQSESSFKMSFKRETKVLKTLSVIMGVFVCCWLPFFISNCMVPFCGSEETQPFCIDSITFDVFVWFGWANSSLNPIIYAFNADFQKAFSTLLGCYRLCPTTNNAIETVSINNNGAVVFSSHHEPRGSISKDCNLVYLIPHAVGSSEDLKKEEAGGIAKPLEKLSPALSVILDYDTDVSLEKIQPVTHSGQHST
D(2) dopamine receptor, sequence (P61169 whole entry): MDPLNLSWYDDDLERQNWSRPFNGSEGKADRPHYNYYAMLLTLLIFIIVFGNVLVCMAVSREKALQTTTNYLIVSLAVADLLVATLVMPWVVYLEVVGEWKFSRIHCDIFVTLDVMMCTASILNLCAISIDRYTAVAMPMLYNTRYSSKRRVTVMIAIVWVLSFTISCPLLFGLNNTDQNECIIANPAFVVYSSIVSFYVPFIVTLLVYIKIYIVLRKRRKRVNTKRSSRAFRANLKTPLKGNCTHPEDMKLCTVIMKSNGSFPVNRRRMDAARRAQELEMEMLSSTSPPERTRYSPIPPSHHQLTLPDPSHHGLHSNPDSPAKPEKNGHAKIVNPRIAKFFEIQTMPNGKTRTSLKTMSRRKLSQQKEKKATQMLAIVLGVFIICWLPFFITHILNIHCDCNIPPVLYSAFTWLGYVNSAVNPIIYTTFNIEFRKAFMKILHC

As for `CCCC1CN(C)CCc2cc(Cl)c(O)cc21` (centres undefined), the values for the pKi on D(1A) dopamine receptor and at D(2) dopamine receptor were 8.48 and 5.94, respectively. The molecule further gave a CAR in the test on Rattus norvegicus of 0.3 MPK.
The corresponding values for `C#CCC1CN(C)CCc2cc(Cl)c(O)cc21` (centres undefined) are 8.06, 6.20 and 1 MPK.
Taken in the same sequence, the figures for `CN1CCc2cc(Cl)c(O)cc2C(C2CCCC2)C1` (centres undefined) were 7.89, 5.69 and 1 MPK.
Regarding `CN1CCc2cc(Cl)c(O)cc2C(C2=CCCC2)C1` (centres undefined), the pKi (in general, the Ki on a negative log10 scale, so that one unit is a factor of ten) on D(1A) dopamine receptor was 8.29; on D(2) dopamine receptor, 5.81.
Take `CN1CCc2cc(Cl)c(O)cc2C2(CCCC2)C1`: the pKi at D(1A) dopamine receptor was 7.64; on D(2) dopamine receptor it was 5.65. The CAR with Rattus norvegicus was found to be 1 MPK.
Consider `CN1CCc2cc(Cl)c(O)cc2C(C2CCCCC2)C1` (centres undefined), for which the pKi at D(2) dopamine receptor was 5.75. Besides, the CAR in the test with Rattus norvegicus was determined as 0.3 MPK.
Consider `C=CCC1CN(C)CCc2cc(Cl)c(O)cc21` (centres undefined), for which the figures for the pKi on D(1A) dopamine receptor and at D(2) dopamine receptor were 8.24 and 6.55, respectively. In the test with Rattus norvegicus, the CAR is listed as 0.1 MPK.
The corresponding values for `CN1CCc2cc(Cl)c(O)cc2C(N2CCCCC2)C1` (centres undefined) are 7.00, less than 5.00 and 3 MPK.
`CCSC1CN(C)CCc2cc(Cl)c(O)cc21` (centres undefined) showed a pKi at D(2) dopamine receptor of 5.57.
`CN(C)CCCC1CN(C)CCc2cc(Cl)c(O)cc21` (centres undefined): the values for the pKi on D(1A) dopamine receptor and on D(2) dopamine receptor were less than 6.00 and less than 4.00, respectively.
With `CCOC1CN(C)CCc2cc(Cl)c(O)cc21` (centres undefined), the pKi was 7.62 at D(1A) dopamine receptor and less than 5.00 on D(2) dopamine receptor. The molecule also returned a CAR in the test on Rattus norvegicus of 1 MPK.
Taken in the same sequence, the figures for `CN1CCc2cc(Cl)c(O)cc2C(C2C=CCCC2)C1` (centres undefined) were 8.70, 6.24 and 0.3 MPK.
In the test on Rattus norvegicus, `CN1CCc2cc(Cl)c(O)cc2[C@@H](c2ccccc2)C1` [SCH-23390] showed a CAR of 0.02 MPK.
On to `CN1CCc2cc(Cl)c(O)cc2C(C2CCCCCC2)C1` (centres undefined), for which the pKi is 8.12 at D(1A) dopamine receptor and 5.92 at D(2) dopamine receptor. This molecule also had a CAR in the test on Rattus norvegicus of 1 MPK.
The corresponding values for `CN1CCc2cc(Cl)c(O)cc2C(C2C=CC=CC=C2)C1` (centres undefined) are 8.43, 5.74 and 0.1 MPK.
The corresponding values for `CN1CCc2cc(O)c(Cl)cc2CC1` are 7.34, 6.58 and 1 MPK.
The corresponding values for `CN1CCc2cc(Cl)c(O)cc2C(C2=CCCCC2)C1` (centres undefined) are 8.68, 5.80 and 0.1 MPK.

For the origin of these results see ChEMBL document CHEMBL1126414, “Dopamine receptor binding properties of some 2,3,4,5-tetrahydro-1H-3-benzazepine-7-ols with non-aromatic substituents in the 5-position” (Bioorg Med Chem Lett, 1992).
